From patent US10201564B2, “Methods of using inhaled nitric oxide gas for treatment of acute respiratory distress syndrome in children” (Mallinckrodt Hospital Products IP Limited, priority 2014, dated 2019)

Test system: pediatric subjects with acute hypoxemic respiratory failure (AHRF)
Assay: Pediatric AHRF study: adverse events, serious adverse events, deaths, discontinuations
Assay type: in vivo, human
Conditions: 5 ppm
Experimental: This was a prospective, multicenter, randomized, double-blind, placebo-controlled, parallel-group study of the safety and efficacy of inhaled nitric oxide in pediatric subjects with acute hypoxemic respiratory failure (AHRF). The subjects were randomized to receive either 5 ppm inhaled nitric oxide or placebo.
Nitric Oxide for inhalation at 5 ppm was administered continuously into the inspiratory limb of the ventilator circuit in mechanically ventilated subjects using a blinded version of the INOvent® delivery system.
Subjects received 100% treatment gas (nitric oxide 5 ppm or placebo [nitrogen gas]) until Day 28 or extubation, whichever occurred first.
This was a prospective, multicenter, randomized, double-blind, placebo-controlled, Phase III study to assess the effects of nitric oxide for inhalation in the treatment of acute hypoxic respiratory failure (AHRF) in pediatric subjects. The study population consisted of male and female pediatric subjects, aged 44 weeks postconceptional age to 16 years age, who were admitted to the pediatric intensive care unit (PICU) and who required intubation because of AHRF. The inclusion/exclusion criteria are described in the Patients section below.
Standardized ventilatory management and weaning procedures were used. Ventilatory management was used based on an “open lung approach” using positive end-expiratory pressure (PEEP) to increase lung volume and limiting tidal volumes to reduce plateau pressures. Subjects received nitric oxide for inhalation at 5 ppm or placebo (100% Grade 5 nitrogen gas) into the inspiratory limb of the ventilator circuit using a blinded version of the INOvent® delivery system. The subjects were treated until Day 28 or extubation, whichever occurred first. Subjects were assessed daily using a spontaneous breathing trial, according to the institution's standard of care. Arterial blood gases (ABG), ventilator settings, methemoglobin, oxygenation index, systolic blood pressure, diastolic blood pressure, Pediatric Risk of Mortality (PRISM) III score, and subject positioning (prone or supine) were performed/recorded at specified times during the study. Selected centers also performed plasma cytokine assays, bronchoalveolar lavage fluid (BALF) assays, and a 6-month follow-up assessment.

[1] = AE with death as outcome, not suspected related to treatment
[2] = AE with death as outcome, suspected related to treatment
[3] = relationship to study treatment Not Suspected
[4] = relationship to study treatment Suspected

Compound: [N]=O [Nitric Oxide, nitric oxide]
- Hepatic failure [1]: 0 (0.0) n (%)
- Hypotension [1]: 1 (3.8%) n (%)
- Intracranial pressure increased [1]: 0 (0.0) n (%)
- Multi-organ failure [1]: 0 (0.0) n (%)
- Pancreatitis [1]: 0 (0.0) n (%)
- Pneumonia, aspergillus [1]: 0 (0.0) n (%)
- Pulmonary hemorrhage [1]: 0 (0.0) n (%)
- Renal failure [1]: 0 (0.0) n (%)
- Renal impairment [1]: 0 (0.0) n (%)
- Sepsis [1]: 0 (0.0) n (%)
- Bradycardia [2]: 0 (0.0) n (%)
- Brain edema [2]: 0 (0.0) n (%)
- Cardiac arrest [2]: 0 (0.0) n (%)
- Diabetic ketoacidosis [2]: 0 (0.0) n (%)
- Hemolytic anemia [2]: 0 (0.0) n (%)
- Hepatic failure [2]: 0 (0.0) n (%)
- Hypotension [2]: 0 (0.0) n (%)
- Intracranial pressure increased [2]: 0 (0.0) n (%)
- Multi-organ failure [2]: 0 (0.0) n (%)
- Pancreatitis [2]: 0 (0.0) n (%)
- Pneumonia, aspergillus [2]: 0 (0.0) n (%)
- Pulmonary hemorrhage [2]: 0 (0.0) n (%)
- Renal failure [2]: 0 (0.0) n (%)
- Renal impairment [2]: 0 (0.0) n (%)
- Sepsis [2]: 0 (0.0) n (%)
- Adverse event where treatment was stopped: Bradycardia, subjects n (%) (by actual treatment received): 1 (3.8%)
- Adverse event where treatment was stopped: Hypotension, subjects n (%) (by actual treatment received): 1 (3.8%)
- Adverse event where treatment was stopped: Pulmonary hemorrhage, subjects n (%) (by actual treatment received): 0 (00) ^
- Adverse event where treatment was stopped: Sepsis, subjects n (%) (by actual treatment received): 0 (0.0)^
- Serious adverse event: Bradycardia, subjects n (%) (by actual treatment received): 1 (3.8%)
- Serious adverse event: Brain edema, subjects n (%) (by actual treatment received): 0 (0.0)
- Serious adverse event: Cardiac arrest, subjects n (%) (by actual treatment received): 0 (0.0)
- Serious adverse event: Cerebral artery occlusion, subjects n (%) (by actual treatment received): 0 (0.0)
- Serious adverse event: Diabetic ketoacidosis, subjects n (%) (by actual treatment received): 0 (0.0)
- Serious adverse event: Hemolytic anemia, subjects n (%) (by actual treatment received): 0 (0.0)
- Serious adverse event: Hemopneumothorax, subjects n (%) (by actual treatment received): 0 (0.0)
- Serious adverse event: Hemothorax, subjects n (%) (by actual treatment received): 0 (0.0)
- Serious adverse event: Hepatic failure, subjects n (%) (by actual treatment received): 0 (0.0)
- Serious adverse event: Hypotension, subjects n (%) (by actual treatment received): 1 (3.8%)
- Serious adverse event: Hypoxia, subjects n (%) (by actual treatment received): 0 (0.0)
- Serious adverse event: Intracranial pressure increased, subjects n (%) (by actual treatment received): 0 (0.0)
- Serious adverse event: Multi-organ failure, subjects n (%) (by actual treatment received): 0 (0.0)
- Serious adverse event: Pancreatitis, subjects n (%) (by actual treatment received): 0 (0.0)
- Serious adverse event: Pneumonia, aspergillus, subjects n (%) (by actual treatment received): 0 (0.0)
- Serious adverse event: Pulmonary hemorrhage, subjects n (%) (by actual treatment received): 0 (0.0)
- Serious adverse event: Renal failure, acute, subjects n (%) (by actual treatment received): 0 (0.0)
- Serious adverse event: Renal failure, subjects n (%) (by actual treatment received): 0 (0.0)
- Serious adverse event: Renal impairment, subjects n (%) (by actual treatment received): 0 (0.0)
- Serious adverse event: Respiratory failure, subjects n (%) (by actual treatment received): 0 (0.0)
- Serious adverse event: Sepsis, subjects n (%) (by actual treatment received): 0 (0.0)
- Serious adverse event: Subdural hematoma, subjects n (%) (by actual treatment received): 0 (0.0)
- Serious adverse event: Unevaluable event, subjects n (%) (by actual treatment received): 0 (0.0)
- likelihood to experience adverse events versus placebo (in words): no more likely
- overall safety and tolerability in children with AHRF (in words): safe and well tolerated
- safety profile versus placebo (methemoglobin levels, frequency of AEs, mortality rates) (in words): compare favorably
- Subjects with one or more AEs (n = 26): 16 (61.5%) n (%)
- Subjects with one or more AEs suspected to be related to study treatment (n = 26): 0 (0)^ ^ n (%)
- Subjects with one or more SAEs (n = 26): 1 (3.9%) n (%)
- Subjects with one or more severe AEs (n = 26): 2 (7.7%) n (%)
- Subjects withdrawn due to AEs (n = 26): 1 (3.9%) n (%)
- Total AEs leading to discontinuation of study treatment (n = 26): 2
- Total AEs suspected to be related to study treatment (n = 26): 0
- Total SAEs (n = 26): 2
- Total SAEs or AEs leading to discontinuation of study treatment suspected to be related to study treatment (n = 26): 0
- Total severe AEs (n = 26): 4
- Total AEs (n = 26, counted by dictionary-derived term): 52
- Adverse event where treatment was stopped: Bradycardia, subjects n (%) [3]: 1 (3.8%)
- Adverse event where treatment was stopped: Hypotension, subjects n (%) [3]: 1 (3.8%)
- Adverse event where treatment was stopped: Pulmonary hemorrhage, subjects n (%) [3]: 0 (0.0)^
- Adverse event where treatment was stopped: Sepsis, subjects n (%) [3]: 0 (0.0)^
- Serious adverse event: Bradycardia, subjects n (%) [3]: 1 (3.8%)
- Serious adverse event: Brain edema, subjects n (%) [3]: 0 (0.0)
- Serious adverse event: Cardiac arrest, subjects n (%) [3]: 0 (0.0)
- Serious adverse event: Cerebral artery occlusion, subjects n (%) [3]: 0 (0.0)
- Serious adverse event: Diabetic ketoacidosis, subjects n (%) [3]: 0 (0.0)
- Serious adverse event: Hemolytic anemia, subjects n (%) [3]: 0 (0.0)
- Serious adverse event: Hemopneumothorax, subjects n (%) [3]: 0 (0.0)
- Serious adverse event: Hemothorax, subjects n (%) [3]: 0 (0.0)
- Serious adverse event: Hepatic failure, subjects n (%) [3]: 0 (0.0)
- Serious adverse event: Hypotension, subjects n (%) [3]: 1 (3.8%)
- Serious adverse event: Hypoxia, subjects n (%) [3]: 0 (0.0)
- Serious adverse event: Intracranial pressure increased, subjects n (%) [3]: 0 (0.0)
- Serious adverse event: Multi-organ failure, subjects n (%) [3]: 0 (0.0)
- Serious adverse event: Pancreatitis, subjects n (%) [3]: 0 (0.0)
- Serious adverse event: Pneumonia, aspergillus, subjects n (%) [3]: 0 (0.0)
- Serious adverse event: Pulmonary hemorrhage, subjects n (%) [3]: 0 (0.0)
- Serious adverse event: Renal failure, acute, subjects n (%) [3]: 0 (0.0)
- Serious adverse event: Renal failure, subjects n (%) [3]: 0 (0.0)
- Serious adverse event: Renal impairment, subjects n (%) [3]: 0 (0.0)
- Serious adverse event: Respiratory failure, subjects n (%) [3]: 0 (0.0)
- Serious adverse event: Sepsis, subjects n (%) [3]: 0 (0.0)
- Serious adverse event: Subdural hematoma, subjects n (%) [3]: 0 (0.0)
- Serious adverse event: Unevaluable event, subjects n (%) [3]: 0 (0.0)
- Adverse event where treatment was stopped: Bradycardia, subjects n (%) [4]: 0 (0.0)
- Adverse event where treatment was stopped: Hypotension, subjects n (%) [4]: 0 (0.0)
- Adverse event where treatment was stopped: Pulmonary hemorrhage, subjects n (%) [4]: 0 (0.0)
- Adverse event where treatment was stopped: Sepsis, subjects n (%) [4]: 0 (0.0)
- Serious adverse event: Bradycardia, subjects n (%) [4]: 0 (0.0)
- Serious adverse event: Brain edema, subjects n (%) [4]: 0 (0.0)
- Serious adverse event: Cardiac arrest, subjects n (%) [4]: 0 (0.0)
- Serious adverse event: Cerebral artery occlusion, subjects n (%) [4]: 0 (0.0)
- Serious adverse event: Diabetic ketoacidosis, subjects n (%) [4]: 0 (0.0)
- Serious adverse event: Hemolytic anemia, subjects n (%) [4]: 0 (0.0)
- Serious adverse event: Hemopneumothorax, subjects n (%) [4]: 0 (0.0)
- Serious adverse event: Hemothorax, subjects n (%) [4]: 0 (0.0)
- Serious adverse event: Hepatic failure, subjects n (%) [4]: 0 (0.0)
